Data on 24 compounds can be found in patent US20110059962A1, “TRANSCRIPTION FACTOR MODULATING COMPOUNDS AND METHODS OF USE THEREOF” (priority 2009, published 2011).

For one assay, the target named is LcrF (VirF) (Yersinia pestis, UniProt P28808). Description: biochemical. It is filed as binding, Y. pseudotuberculosis.
The next assay has as its target T1, ExsA (Pseudomonas aeruginosa, UniProt P26993).
T1 construct: made in house
T1 sequence (P26993 1-278): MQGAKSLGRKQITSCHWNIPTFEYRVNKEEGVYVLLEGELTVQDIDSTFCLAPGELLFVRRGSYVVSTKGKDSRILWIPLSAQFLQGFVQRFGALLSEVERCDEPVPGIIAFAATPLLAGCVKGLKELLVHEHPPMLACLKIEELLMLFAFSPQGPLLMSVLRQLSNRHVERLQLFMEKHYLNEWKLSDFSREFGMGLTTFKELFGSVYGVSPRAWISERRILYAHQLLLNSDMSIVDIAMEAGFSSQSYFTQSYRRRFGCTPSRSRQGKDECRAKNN
Briefly: Inhibition of ExsA-DNA binding, cell-free chemiluminescence assay. Further details: species or system P. aeruginosa.

Assay [1] deals with P. aeruginosa cytotoxicity toward J774 cells. Description: Inhibition of P. aeruginosa cytotoxicity toward J774 macrophage-like cells, whole cell LDH release assay (CytoTox 96). Further details: dose or concentration left out as unconfirmed. As to conditions: Pseudomonas aeruginosa, J774, read-out: % Cytotoxicity. On the technique in general: LDH in the medium is a marker of cell lysis.

The target of the next assay is T2, SoxS (Escherichia coli, UniProt P0A9E2).
T2 construct: made in house; host or cells: E. coli
T2 sequence (P0A9E2 1-107): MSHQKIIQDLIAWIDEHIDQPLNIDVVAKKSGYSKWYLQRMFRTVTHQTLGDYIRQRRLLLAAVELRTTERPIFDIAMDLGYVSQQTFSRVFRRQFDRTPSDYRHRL
Description: Inhibition of SoxS-DNA binding, cell-free chemiluminescence assay. Also on record: species or system E. coli.

For assay [2], the system named is Y. pseudotuberculosis cytotoxicity toward J774 cells. Description: microbe, parasite or virus in culture. As to conditions: Yersinia pseudotuberculosis, J774, read-out: % Cytotoxicity.
The target of a further assay is T3, SlyA (Salmonella typhimurium, UniProt P40676).
T3 construct: made in house; host or cells: E. coli
T3 sequence (P40676 1-144): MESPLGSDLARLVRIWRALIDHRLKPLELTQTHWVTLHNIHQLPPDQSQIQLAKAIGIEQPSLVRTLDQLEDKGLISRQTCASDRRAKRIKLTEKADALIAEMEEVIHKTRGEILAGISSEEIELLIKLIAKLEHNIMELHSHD
Description: Inhibition of SlyA-DNA binding, cell-free chemiluminescence assay (specificity). Further details: species or system S. typhimurium enterica serovar Typhimurium.

Assay [3] concerns pET-15b supercoiled plasmid DNA. Briefly: Assay to detect direct DNA binding (UV fluorescence and agarose gel migration of plasmid DNA). As to conditions: 100 μg/mL; 100 ng pET-15b plasmid, 30 minutes at room temperature.

By pIC50 is commonly meant the IC50 on a negative log10 scale, so that one unit is a factor of ten.

Molecules are shown by their SMILES. pIC50: −log10 of the molar value.

LcrF (VirF), sequence (P28808 whole entry, looked up): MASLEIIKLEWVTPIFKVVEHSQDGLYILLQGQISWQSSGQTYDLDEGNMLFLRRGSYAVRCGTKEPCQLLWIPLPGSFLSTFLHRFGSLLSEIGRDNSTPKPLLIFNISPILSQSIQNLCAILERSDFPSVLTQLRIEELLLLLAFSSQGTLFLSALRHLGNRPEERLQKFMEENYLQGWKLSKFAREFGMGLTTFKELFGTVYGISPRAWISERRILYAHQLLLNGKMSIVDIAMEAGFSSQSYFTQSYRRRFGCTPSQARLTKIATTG

Consider `CSc1ccc(/C=C/C(=O)Nc2ccc(-c3nc4ccc([N+](=O)[O-])cc4n3O)cc2)cc1` [C], for which the pIC50 against LcrF (VirF) is 4.60 to 5.00; at ExsA it was 4.60 to 5.00; on SoxS, 4.30 to 4.60. Also, the activity in assay [1] is 75 to 99%. The activity at 50 µg/mL in assay [2] was 75 to 99%.
Consider `CSc1ccc(/C=C/C(=O)Nc2ccc(-c3nc4ccc(C#N)cc4n3O)cc2)cc1` [Compound D, (E)-N-[4-(6-Cyano-1-hydroxy-1H-benzoimidazol-2-yl)-phenyl]-3-(4-methylsulfanyl-phenyl)-acrylamide], for which the pIC50 was 4.30 to 4.60 at LcrF (VirF), greater than 5.00 at ExsA and 4.60 to 5.00 on SoxS. For the same compound, in assay [1], the activity lay in the range of 75 to 99%. Moreover, in assay [2], the activity at 50 µg/mL lay in the range of 75 to 99%.
For `CSc1ccc(/C=C/C(=O)Nc2ccc(-c3nc4ccc(C#N)cc4n3O)cc2)cn1` [Compound H, (E)-N-[4-(6-Cyano-1-hydroxy-1H-benzoimidazol-2-yl)-phenyl]-3-(6-methylsulfanyl-pyridin-3-yl)-acrylamide], the values for the negative logarithm of the IC50 (pIC50) on LcrF (VirF), on ExsA and on SoxS were 4.30 to 4.60, greater than 5.00 and less than 4.30, respectively. Further, the activity in assay [1] was less than 75%. For the same compound, in assay [2], the activity at 50 µg/mL is less than 75%.
For `CC(=O)c1ccc(/C=C/C(=O)Nc2ccc(-c3nc4c(CC(=O)O)cc([N+](=O)[O-])cc4n3O)cc2)cc1` [Compound J, (2-{4-[(E)-3-(4-Acetyl-phenyl)-acryloylamino]-phenyl}-1-hydroxy-6-nitro-1H-benzoimidazol-4-yl)-acetic acid], the pIC50 on LcrF (VirF) was greater than 5.00; at ExsA, greater than 5.00; at SlyA it was 4.30 to 4.60; on SoxS, greater than 5.00. Moreover, the activity in assay [1] was less than 75%. The activity at 50 µg/mL in assay [2] was less than 75%.
Take `N#Cc1ccc2nc(-c3ccc(NC(=O)c4ccc(-n5cccn5)nc4)cc3)n(O)c2c1` [Compound M, N-[4-(6-Cyano-1-hydroxy-1H-benzoimidazol-2-yl)-phenyl]-6-pyrazol-1-yl-nicotinamide]: the pIC50 at LcrF (VirF) and at SoxS was less than 4.30 throughout. Moreover, the activity in assay [1] lay in the range of 75 to 99%. For the same compound, the activity at 50 µg/mL in assay [2] was less than 75%.
For the compound `O=C(Nc1ccc(-c2nc3ccc([N+](=O)[O-])cc3n2O)cc1)c1cccc(N2CCOCC2)n1` [Compound N, 6-Morpholin-4-yl-pyridine-2-carboxylic acid [4-(1-hydroxy-6-nitro-1H-benzoimidazol-2-yl)-phenyl]-amide], the pIC50 is less than 4.30 on LcrF (VirF) and 4.60 to 5.00 at ExsA. Besides, the activity in assay [1] lay in the range of 75 to 99%. Besides, the activity at 50 µg/mL in assay [2] was in the range of 75 to 99%.
Consider `N#Cc1ccc2nc(-c3ccc(NC(=O)c4ccc(N5CCOCC5)nc4)cc3)n(O)c2c1` [Compound P, N-[4-(6-Cyano-1-hydroxy-1H-benzoimidazol-2-yl)-phenyl]-6-morpholin-4-yl-nicotinamide], for which the results for the pIC50 against LcrF (VirF), on ExsA and on SoxS were less than 4.30, greater than 5.00 and less than 4.30, respectively. Further, the activity in assay [1] lay within 75 to 99%. The activity at 50 µg/mL in assay [2] is 75 to 99%.
As to `CC(=O)c1ccc(C(=O)Nc2ccc(-c3nc4c(CC(=O)O)cc([N+](=O)[O-])cc4n3O)cc2)cc1` [Compound R, {2-[4-(4-Acetyl-benzoylamino)-phenyl]-1-hydroxy-6-nitro-1H-benzoimidazol-4-yl}-acetic acid], the pIC50 against LcrF (VirF) and on ExsA was 4.30 to 4.60 throughout. The activity in assay [1] was 75 to 99%. In addition, the activity at 50 µg/mL in assay [2] fell in the range of 75 to 99%.
For `O=C(Nc1ccc(-c2nc3ccc([N+](=O)[O-])cc3n2O)cc1)c1ccnc(N2CCOCC2)c1` [Compound T], the pIC50 at LcrF (VirF) and on ExsA was less than 4.30 each time. For the same compound, the activity in assay [1] was 75 to 99%. Also, the activity at 50 µg/mL in assay [2] was less than 75%.
In the case of `CSc1ccc2nc(-c3ccc(NC(=O)/C=C/c4ccc(C(C)=O)cc4)cc3)n(O)c2c1` [Compound U, (E)-3-(4-Acetyl-phenyl)-N-[4-(1-hydroxy-6-methylsulfanyl-1H-benzoimidazol-2-yl)-phenyl]-acrylamide], the pIC50 is less than 4.30 at LcrF (VirF) and 4.60 to 5.00 on ExsA. Also, the activity in assay [1] lay within 75 to 99%. Also, the activity at 50 µg/mL in assay [2] was in the range of 75 to 99%.
As for `CC(=O)c1ccc(/C=C/C(=O)Nc2ccc(-c3nc4c(CC(=O)O)cc([N+](=O)[O-])cc4n3O)cc2)cn1` [Compound V, (2-{4-[(E)-3-(6-Acetyl-pyridin-3-yl)-acryloylamino]-phenyl}-1-hydroxy-6-nitro-1H-benzoimidazol-4-yl)-acetic acid], the pIC50 on LcrF (VirF) is greater than 5.00; at ExsA, greater than 5.00; at SlyA, 4.30 to 4.60. In addition, the activity in assay [1] was less than 75%. Also, the activity at 50 µg/mL in assay [2] is less than 75%.
Regarding `Cc1nc(C(F)(F)F)ccc1C(=O)Nc1ccc(-c2nc3ccc([N+](=O)[O-])cc3n2O)cc1` [Compound W, N-[4-(1-Hydroxy-6-nitro-1H-benzoimidazol-2-yl)-phenyl]-2-methyl-6-trifluoromethyl-nicotinamide], the pIC50 on LcrF (VirF) and at ExsA was less than 4.30 in each case. In addition, the activity in assay [1] was 75 to 99%. Further, the activity at 50 µg/mL in assay [2] was 75 to 99%.
In the case of `O=C(Nc1ccc(-c2nc3ccc([N+](=O)[O-])cc3n2O)cc1)c1ccc(OCC(F)(F)F)nc1` [Compound X, N-[4-(1-Hydroxy-6-nitro-1H-benzoimidazol-2-yl)-phenyl]-6-(2,2,2-trifluoro-ethoxy)-nicotinamide], the pIC50 on LcrF (VirF) and on ExsA was 4.30 to 4.60 each time. Moreover, the activity in assay [1] was in the range of 75 to 99%. Besides, the activity at 50 µg/mL in assay [2] lay within 75 to 99%.
`O=C(Nc1ccc(-c2nc3ccc([N+](=O)[O-])cc3n2O)cc1)c1ccc(C(O)(O)C(F)(F)F)cc1` [E]: the pIC50 on LcrF (VirF) and on ExsA was less than 4.30 in each case. The activity in assay [1] is 75 to 99%. Also, the activity at 50 µg/mL in assay [2] lay within 75 to 99%.
With `N#Cc1ccc2nc(-c3ccc(NC(=O)c4ccc(C(O)(O)C(F)(F)F)cc4)cc3)n(O)c2c1` [F], the negative-log IC50 (pIC50) against LcrF (VirF) was less than 4.30; at ExsA, 4.60 to 5.00. The activity in assay [1] is 75 to 99%. Moreover, the activity at 50 µg/mL in assay [2] was in the range of 75 to 99%.
For the compound `CSc1ccc(/C=C/C(=O)Nc2ccc(-c3nc4ccc([N+](=O)[O-])cc4n3O)cc2)cn1` [G], the values for the pIC50 at LcrF (VirF), at ExsA and at SoxS were 4.60 to 5.00, greater than 5.00 and less than 4.30, respectively. Also, the activity in assay [1] was less than 75%. Moreover, the activity at 50 µg/mL in assay [2] was less than 75%.
Take `CCOc1ccc(-c2nc3ccc(-c4nc5ccc(N6CCN(C)CC6)cc5[nH]4)cc3[nH]2)cc1` [Hoechst 33342]: in assay [3], the “fluorescence under UV light and DNA migration on agarose gel” value is “bright fluorescence under UV light and a faint smear on the gel”.
For the compound `O=C(/C=C/c1ccc(C(O)(O)C(F)(F)F)cc1)Nc1ccc(-c2nc3ccc([N+](=O)[O-])cc3n2O)cc1` [K], the pIC50 against LcrF (VirF) and at ExsA was less than 4.30 throughout. Moreover, in assay [1], the activity was 75 to 99%. Besides, the activity at 50 µg/mL in assay [2] lay in the range of 75 to 99%.
On to `N#Cc1ccc2nc(-c3ccc(NC(=O)/C=C/c4ccc(C(O)(O)C(F)(F)F)cc4)cc3)n(O)c2c1` [L], for which the pIC50 was less than 4.30 against LcrF (VirF) and 4.60 to 5.00 at ExsA. Moreover, in assay [1], the activity was in the range of 75 to 99%. Further, in assay [2], the activity at 50 µg/mL lay in the range of 75 to 99%.
With `CN1CCN(c2ccc(C(=O)Nc3ccc(-c4nc5ccc([N+](=O)[O-])cc5n4O)cc3)cn2)CC1` [O], the negative-log IC50 (pIC50) on LcrF (VirF) and on ExsA was less than 4.30 each time. Moreover, in assay [1], the activity was in the range of 75 to 99%. The activity at 50 µg/mL in assay [2] fell in the range of 75 to 99%.
On to `O=C(O)Cc1cc([N+](=O)[O-])cc2c1nc(-c1ccc(NC(=O)c3ccc(N4CCOCC4)nc3)cc1)n2O` [Q], for which the pIC50 at LcrF (VirF) and at ExsA was 4.30 to 4.60 each time. Moreover, the activity in assay [1] was in the range of 75 to 99%. Moreover, in assay [2], the activity at 50 µg/mL was 75 to 99%.
With `O=C(Nc1ccc(-c2nc3ccc([N+](=O)[O-])cc3n2O)cc1)c1ccc(N2CCCCC2)nc1` [S], the pIC50 was less than 4.30 at LcrF (VirF) and 4.30 to 4.60 at ExsA. Further, in assay [1], the activity is 75 to 99%. For the same compound, the activity at 50 µg/mL in assay [2] was 75 to 99%.
For `CN(C)c1ccc(C(=O)Nc2ccc(-c3nc4ccc([N+](=O)[O-])cc4n3O)cc2)cn1` [Y], the pIC50 against LcrF (VirF) and on ExsA was 4.60 to 5.00 throughout. The activity in assay [1] was 75 to 99%. The activity at 50 µg/mL in assay [2] was less than 75%.
Regarding `CN(C)c1ccc(/C=C/C(=O)Nc2ccc(-c3nc4ccc([N+](=O)[O-])cc4n3O)cc2)cn1` [Z], the pIC50 on LcrF (VirF) and on ExsA was less than 4.30 each time. In addition, in assay [1], the activity lay within 75 to 99%. Besides, the activity at 50 µg/mL in assay [2] was in the range of 75 to 99%.
